In this assay the target is Sodium channel protein type 9 subunit alpha (Homo sapiens, UniProt Q15858). The assay can be described thus: cell-based.
Chain of Sodium channel protein type 9 subunit alpha (Q15858 whole entry): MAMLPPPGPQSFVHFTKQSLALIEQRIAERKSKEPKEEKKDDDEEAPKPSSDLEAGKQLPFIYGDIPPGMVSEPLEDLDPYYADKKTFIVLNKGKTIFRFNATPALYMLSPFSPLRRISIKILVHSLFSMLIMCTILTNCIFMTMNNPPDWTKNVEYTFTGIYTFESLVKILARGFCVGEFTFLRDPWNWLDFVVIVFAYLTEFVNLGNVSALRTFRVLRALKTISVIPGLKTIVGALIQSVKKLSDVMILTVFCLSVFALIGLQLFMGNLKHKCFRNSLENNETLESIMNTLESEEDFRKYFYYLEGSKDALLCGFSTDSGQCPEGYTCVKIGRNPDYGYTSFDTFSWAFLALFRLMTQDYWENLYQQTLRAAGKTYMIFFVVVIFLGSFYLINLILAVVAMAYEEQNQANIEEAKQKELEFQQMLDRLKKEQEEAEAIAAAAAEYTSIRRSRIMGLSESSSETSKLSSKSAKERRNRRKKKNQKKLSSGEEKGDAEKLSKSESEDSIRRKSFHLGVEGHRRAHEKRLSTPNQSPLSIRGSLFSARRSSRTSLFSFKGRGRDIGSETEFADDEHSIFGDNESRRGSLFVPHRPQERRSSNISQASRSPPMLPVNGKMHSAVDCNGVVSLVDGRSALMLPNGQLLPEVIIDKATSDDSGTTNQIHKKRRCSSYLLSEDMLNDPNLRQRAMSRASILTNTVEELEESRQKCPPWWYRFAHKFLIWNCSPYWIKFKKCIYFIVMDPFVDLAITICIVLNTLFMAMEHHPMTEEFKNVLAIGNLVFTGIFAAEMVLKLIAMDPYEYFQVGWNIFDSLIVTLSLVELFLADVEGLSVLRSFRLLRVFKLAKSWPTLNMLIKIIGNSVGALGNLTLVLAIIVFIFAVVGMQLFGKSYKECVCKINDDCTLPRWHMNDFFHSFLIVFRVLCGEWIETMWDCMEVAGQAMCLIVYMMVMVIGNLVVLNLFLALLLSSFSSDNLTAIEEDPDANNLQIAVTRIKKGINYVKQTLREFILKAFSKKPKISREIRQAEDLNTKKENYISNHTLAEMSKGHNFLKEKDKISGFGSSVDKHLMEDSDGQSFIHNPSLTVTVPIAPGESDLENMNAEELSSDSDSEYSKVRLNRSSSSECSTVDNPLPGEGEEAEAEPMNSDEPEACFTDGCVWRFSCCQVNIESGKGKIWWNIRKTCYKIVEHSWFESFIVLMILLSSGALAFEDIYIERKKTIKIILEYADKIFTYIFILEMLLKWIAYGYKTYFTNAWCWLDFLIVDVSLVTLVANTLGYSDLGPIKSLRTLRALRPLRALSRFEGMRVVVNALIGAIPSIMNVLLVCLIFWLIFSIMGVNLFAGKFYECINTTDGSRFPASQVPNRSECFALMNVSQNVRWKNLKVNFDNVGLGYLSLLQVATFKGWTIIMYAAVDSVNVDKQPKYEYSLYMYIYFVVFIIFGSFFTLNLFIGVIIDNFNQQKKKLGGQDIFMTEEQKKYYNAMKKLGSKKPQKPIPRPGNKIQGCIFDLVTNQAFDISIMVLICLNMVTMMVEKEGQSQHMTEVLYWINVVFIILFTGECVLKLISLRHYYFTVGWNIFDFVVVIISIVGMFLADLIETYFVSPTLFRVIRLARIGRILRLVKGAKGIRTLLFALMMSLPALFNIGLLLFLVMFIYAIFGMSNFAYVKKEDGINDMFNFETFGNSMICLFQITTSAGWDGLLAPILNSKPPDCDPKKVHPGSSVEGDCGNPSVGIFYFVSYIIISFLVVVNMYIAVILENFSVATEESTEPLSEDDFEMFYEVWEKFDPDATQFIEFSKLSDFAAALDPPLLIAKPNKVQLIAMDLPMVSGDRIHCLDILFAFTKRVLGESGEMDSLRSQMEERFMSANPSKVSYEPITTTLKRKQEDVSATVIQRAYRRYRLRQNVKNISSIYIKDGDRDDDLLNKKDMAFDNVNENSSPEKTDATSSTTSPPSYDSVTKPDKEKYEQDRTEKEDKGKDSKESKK

As for `N#Cc1cc(S(=O)(=O)Nc2nccs2)ccc1Oc1ccc(Cl)cc1-c1c[nH]nc1C(F)(F)F`, the IC50 is 430 nM. Regarding `N#Cc1cc(S(=O)(=O)Nc2cc(C(F)(F)F)ncn2)ccc1Oc1ccccc1-c1ccccc1`, it took 10000 nM to reach half-maximal inhibition (IC50).

Compound `CN(C)C(=O)c1cnn(-c2ccc(Oc3ccc(S(=O)(=O)Nc4nccs4)cc3C#N)cc2)c1` showed an IC50 of 1000 nM.

As to `N#Cc1cc(S(=O)(=O)Nc2ncc(Cl)s2)ccc1Oc1ccc(Cl)cc1-c1ccnc(N)c1`, the IC50 was 97 nM. Compound `N#Cc1cc(S(=O)(=O)Nc2nccs2)ccc1Oc1ccc(-c2cn(CC(F)(F)F)nc2N)cc1` gave an IC50 of 1000 nM. Next, `N#Cc1cc(S(=O)(=O)Nc2ccc(F)cn2)ccc1Oc1ccc(-c2cocn2)cc1`: 3000 nM; `N#Cc1ccc(NS(=O)(=O)c2ccc(Oc3ccccc3-c3ccccc3)c(C#N)c2)nc1`: 25000 nM; `CC1CN(c2ccc(Oc3ccc(S(=O)(=O)Nc4nccs4)cc3C#N)cc2)C(=O)N1` (stereo not drawn): 1000 nM. Consider `N#Cc1cc(S(=O)(=O)Nc2nccs2)ccc1Oc1ccc(F)cc1-c1ccc(F)nc1`, for which 230 nM corresponded to half-maximal inhibition (IC50). For `N#Cc1ccnc(NS(=O)(=O)c2ccc(Oc3ccccc3-c3ccccc3)c(C#N)c2)c1`, half-maximal inhibition (IC50) was put at 1000 nM. `Cc1cc(C)n(-c2ccc(Oc3ccc(S(=O)(=O)Nc4nccs4)c(F)c3)cc2)n1`: half-maximal inhibition (IC50) was put at 1000 nM. Compound `N#Cc1cc(S(=O)(=O)Nc2ccc(F)cn2)ccc1Oc1ccccc1C1CCCCO1` (stereo not drawn) gave an IC50 of 3000 nM. Next, `N#Cc1cc(S(=O)(=O)Nc2ncns2)ccc1Oc1nnccc1-c1ccccc1`: 10000 nM; `Nc1cc(-c2cc(OC(F)(F)F)ccc2Oc2cc(F)c(S(=O)(=O)Nc3ncns3)cc2F)ccn1`: 2.4 nM; `N#Cc1cc(S(=O)(=O)Nc2cscn2)ccc1Oc1ccc(Cl)cc1-n1cnc(C(F)(F)F)c1`: 1000 nM.

With `Cn1nccc1-c1cc(C(F)(F)F)ncc1Oc1ccc(S(=O)(=O)Nc2ncc(Cl)s2)cc1C#N`, half-maximal inhibition (IC50) required 220 nM. As to `CC(C)(C)OC(=O)n1cc(-c2cc(Cl)ccc2Oc2cc(F)c(S(=O)(=O)Nc3ncc(F)s3)cc2F)cn1`, the midpoint of inhibition, the IC50, lay at 25 nM. On to `N#Cc1cc(S(=O)(=O)Nc2nccs2)ccc1Oc1ccc(-n2cc(C(N)=O)cn2)cc1`, for which the IC50 was 1000 nM.

Regarding `N#Cc1cc(S(=O)(=O)Nc2ncco2)ccc1Oc1ccccc1-c1ccccc1`, the midpoint of inhibition, the IC50, lay at 10000 nM. With `CCn1nc(C(F)(F)F)cc1-c1ccc(Oc2ccc(S(=O)(=O)Nc3ncccc3F)cc2C#N)cc1` the figure was 14000 nM. As for `Cn1nccc1-c1ccc(Oc2ccc(S(=O)(=O)Nc3nccs3)cc2C#N)cn1`, it took 1000 nM to reach half-maximal inhibition (IC50). The compound `N#Cc1cc(S(=O)(=O)Nc2ncns2)ccc1Oc1ccc(C(F)(F)F)cc1-c1cccnc1` had an IC50 of 12 nM.

Compound `Cn1cc(-c2ccc(Oc3ccc(S(=O)(=O)Nc4nccs4)cc3C#N)cc2)c(N)n1` gave an IC50 of 1000 nM. Next, `CN(C)C(=O)c1cccc(-c2ccccc2)c1Oc1ccc(S(=O)(=O)c2ncns2)cc1C#N`: 740 nM; `CCn1nc(C(F)(F)F)cc1-c1ccc(Oc2ccc(S(=O)(=O)Nc3nncs3)cc2C#N)cc1`: 770 nM; `N#Cc1cc(S(=O)(=O)Nc2nccs2)ccc1Oc1ccc(-n2cc(F)cn2)cc1`: 1000 nM. On to `CCc1nnc(C)n1-c1ccc(Oc2ccc(S(=O)(=O)Nc3ccc(F)cn3)cc2C#N)cc1`, for which the IC50 is 3000 nM. With `Cc1nn(C(C)(C)C)cc1-c1cc(Cl)ccc1Oc1cc(F)c(S(=O)(=O)Nc2nncs2)cc1Cl` the figure was 300 nM; with `Cn1nccc1-c1cc(Cl)ccc1Oc1ccc(S(=O)(=O)Nc2cccnc2)cc1C#N`, 10000 nM. For the compound `Cc1nc(-c2cccc(Oc3ccc(S(=O)(=O)Nc4ccc(F)cn4)cc3C#N)c2)no1`, the IC50 was 3000 nM.

The compound `COc1cccc(-c2ccc(Oc3ccc(S(=O)(=O)Nc4nccs4)cc3C#N)cc2)n1` had an IC50 of 1000 nM.

Compound `N#Cc1cnc(NS(=O)(=O)c2ccc(Oc3ccccc3-c3ccccc3)c(C#N)c2)nc1` showed an IC50 of 10000 nM. `COc1nccnc1NS(=O)(=O)c1ccc(Oc2ccc(Cl)cc2-c2ccnn2C)c(C#N)c1` showed an IC50 of 10000 nM.

In the case of `N#Cc1cc(S(=O)(=O)Nc2ncns2)ccc1Oc1ccc(Cl)cc1-c1ccnn1C1CCC1`, the IC50 is 12 nM. Next, `CCn1nc(C(F)(F)F)cc1-c1cccc(Oc2ccc(S(=O)(=O)Nc3ccc(F)cn3)cc2C#N)c1`: 1000 nM; `O=S(=O)(Nc1cscn1)c1ccc(Oc2cc(C(F)(F)F)nn2-c2ccccc2)c(F)c1`: 10000 nM; `Cn1nccc1NS(=O)(=O)c1ccc(Oc2ccc(Cl)cc2-c2ccnn2C)c(C#N)c1`: 10000 nM. Next, `Nc1nccc(-c2cc(F)ccc2Oc2cc(F)c(S(=O)(=O)Nc3ncc(Cl)s3)cc2F)n1`: 1000 nM; `N#Cc1cc(S(=O)(=O)Nc2nccs2)ccc1Oc1ccc(-c2cc(C(F)(F)F)n(CCCF)n2)cc1F`: 1000 nM. Next, `N#Cc1cc(S(=O)(=O)Nc2nccs2)ccc1Oc1ccc(-c2nccc(C(F)(F)F)n2)cc1`: 1000 nM; `N#Cc1cc(S(=O)(=O)Nc2nncs2)ccc1Oc1ccc(OC(F)(F)F)cc1-c1ccnnc1`: 100 nM.

`Cc1scnc1NS(=O)(=O)c1cc(Cl)c(Oc2ccc(F)cc2-c2ccnn2C)cc1F` showed an IC50 of 1000 nM. Compound `O=S(=O)(Nc1ncns1)c1cc(F)c(Oc2ccc(Cl)cc2C2CCNCC2)cc1F` had an IC50 of 8.4 nM. Next, `N#Cc1cc(S(=O)(=O)Nc2ncc(F)s2)ccc1Oc1ccccc1-c1ccccc1`: 530 nM; `N#Cc1cc(S(=O)(=O)Nc2ncns2)ccc1Oc1cc(C(F)(F)F)nn1Cc1ccccc1`: 300 nM.

`N#Cc1cc(S(=O)(=O)Nc2ncns2)ccc1Oc1ccc(-c2nc(CO)co2)cc1` gave an IC50 of 1000 nM.

For `CC(C)c1nsc(NS(=O)(=O)c2ccc(Oc3ccccc3-c3ccccc3)c(C#N)c2)n1`, the IC50 was 10000 nM. With `N#Cc1cc(S(=O)(=O)Nc2cnsn2)ccc1Oc1ccccc1-c1ccccc1` the figure was 5680 nM; with `N#Cc1cc(S(=O)(=O)Nc2nccs2)ccc1Oc1cnn(-c2ccc(Cl)cc2Cl)c1`, 1000 nM. With `O=S(=O)(Nc1nncs1)c1ccc(Oc2ccc(Cl)cc2-c2ccn[nH]2)c(Cl)c1` the figure was 50 nM.

Compound `N#Cc1cc(S(=O)(=O)Nc2ncc(Cl)s2)ccc1Oc1ccc(F)cc1-c1cccc(N)n1` showed an IC50 of 10 nM. With `N#Cc1cc(S(=O)(=O)Nc2ncns2)cc(F)c1Oc1ccc(F)cc1-c1cn[nH]c1` the figure was 740 nM; with `Cn1ncnc1-c1cc(Cl)ccc1Oc1ccc(S(=O)(=O)Nc2ncc(F)s2)cc1F`, 1000 nM. `CC(C)(C)n1ccc(-c2cc(F)ccc2Oc2cc(F)c(S(=O)(=O)Nc3cscn3)cc2Cl)n1` had an IC50 of 1000 nM.

With `N#Cc1cc(S(=O)(=O)Nc2ncns2)ccc1Oc1ccc(C(F)(F)F)cc1C1CCOCC1`, the IC50 is 8.8 nM. Regarding `N#Cc1cc(S(=O)(=O)Nc2ncns2)ccc1Oc1nccnc1-c1ccccc1`, the IC50 was 10000 nM. `Cc1cncnc1NS(=O)(=O)c1ccc(Oc2ccccc2-c2ccccc2)c(C#N)c1` showed an IC50 of 10000 nM.

`O=S(=O)(Nc1cscn1)c1cc(Cl)c(Oc2cc(C(F)(F)F)ccc2-c2cncnc2)cc1F` showed a concentration for half-maximal inhibition (IC50) of 1000 nM.

`N#Cc1cc(S(=O)(=O)Nc2ncns2)ccc1Oc1ccc(-n2cc(COC(=O)C(F)(F)F)cn2)cc1` showed an IC50 of 1000 nM. As to `CCn1nc(C)c(-c2ccccc2Oc2ccc(S(=O)(=O)Nc3ncns3)cc2C#N)c1C`, the IC50 is 300 nM. Next, `N#Cc1cc(S(=O)(=O)Nc2nccs2)ccc1Oc1ccc(-n2cccn2)cc1C(F)(F)F`: 1000 nM; `N#Cc1cc(S(=O)(=O)Nc2nccs2)ccc1Oc1ccc(-n2cc(Cl)cn2)c(C(=O)O)c1`: 1000 nM; `N#Cc1cc(S(=O)(=O)Nc2cscn2)ccc1Oc1ccc(Cl)cc1-c1ccn(C(F)(F)F)n1`: 1000 nM.

Consider `N#Cc1cc(S(=O)(=O)Nc2ncns2)ccc1Oc1cnc(N)nc1-c1ccc(Cl)cc1`, for which the concentration for half-maximal inhibition (IC50) is 10000 nM. The compound `Cn1nccc1-c1cc(Cl)ccc1Oc1ccc(S(=O)(=O)Nc2cncnc2)cc1C#N` showed an IC50 of 30000 nM. With `CC(C)C1CN(c2ccc(Oc3ccc(S(=O)(=O)Nc4nccs4)cc3C#N)cc2)C(=O)N1` (stereo not drawn) the figure was 1000 nM.

Compound `N#Cc1cc(S(=O)(=O)Nc2nccs2)ccc1Oc1ccc(Cl)cc1-c1ccccn1` showed an IC50 of 580 nM. Next, `N#Cc1cc(S(=O)(=O)Nc2ncns2)ccc1Oc1ccc(C(F)(F)F)cc1C1=CN(O)CC=C1`: 110 nM; `N#Cc1cc(S(=O)(=O)Nc2ncns2)ccc1Oc1ccccc1-c1cccc(F)c1`: 670 nM. Next, `N#Cc1cc(S(=O)(=O)Nc2nncs2)ccc1Oc1ccc(Cl)cc1-c1cc(N2CCOCC2)ncn1`: 1000 nM. Next, `N#Cc1cc(SNc2ncns2)ccc1Oc1ccc(F)cc1C1CC1`: 1000 nM. Compound `CN(C)Cc1cnn(-c2ccc(Oc3ccc(S(=O)(=O)Nc4nccs4)cc3C#N)cc2)c1` showed an IC50 of 1000 nM.

`CCN1CC(n2nccc2-c2cc(C(F)(F)F)ccc2Oc2ccc(S(=O)(=O)Nc3cscn3)cc2C#N)C1` had an IC50 of 22 nM. Next, `Cc1nnc(-c2ccc(Oc3ccc(S(=O)(=O)Nc4ccc(F)cn4)cc3C#N)cc2)o1`: 3000 nM; `N#Cc1cc(S(=O)(=O)Nc2ccc(F)cn2)ccc1Oc1ccc(CN2CCC2)c(F)c1`: 30000 nM; `N#Cc1cc(S(=O)(=O)Nc2nccs2)ccc1Oc1ccc(-c2cnn(CC(F)(F)F)c2N)cc1`: 10000 nM. With `CCOCn1nncc1-c1cc(Cl)ccc1Oc1ccc(S(=O)(=O)Nc2nccs2)cc1C#N` the figure was 300 nM. Next, `N#Cc1cnc(NS(=O)(=O)c2ccc(Oc3ccccc3-c3ccccc3)c(C#N)c2)s1`: 12200 nM; `N#Cc1cc(S(=O)(=O)Nc2nccs2)ccc1Oc1ccc(-c2cc(C(F)(F)F)ccn2)cc1`: 370 nM. In turn, `O=S(=O)(Nc1cscn1)c1cc(Cl)c(Oc2ccc(C(F)(F)F)cc2-c2cncc(CO)c2)cc1F` gave an IC50 of 300 nM. Next, `Cc1ccc(Oc2ccc(S(=O)(=O)Nc3nccs3)cc2F)c(-c2ccn(C)n2)c1`: 6440 nM; `Nc1cc(-c2cc(Cl)ccc2Oc2cc(F)c(S(=O)(=O)Nc3cscn3)cc2F)ccn1`: 19 nM; `Cc1ccc(NS(=O)(=O)c2ccc(Oc3ccccc3-c3ccccc3)c(C#N)c2)nc1`: 3000 nM.

As a reminder, the IC50 is the concentration that inhibits the measured activity by half.

(Values after ChEMBL document CHEMBL2321810, “QSAR investigation of NaV1.7 active compounds using the SVM/Signature approach and the Bioclipse Modeling platform” (Bioorg Med Chem Lett, 2013).)
